The values below come from patent US20080280879A1, “SUBSTITUTED HETEROCYCLIC DERIVATIVES AND THEIR PHARMACEUTICAL USE AND COMPOSITIONS” (priority 2007, published 2008).

Molecules are shown by their SMILES. In brackets after ≈: the same amount, converted by molar mass.

Common to all, as to type: cell-based, Staphylococcus aureus
Experiment [1] deals with Staph aureus 1146. Briefly: MIC, microtiter broth dilution (CLSI M7-A7), Assay 1, Table 12 column B, no serum. Conditions: for MIC: Staphylococcus aureus, 1146, Staph aureus 1146, Assay 1, no serum; for MIC, column B: Staph aureus 1146, Assay 1, no serum. In a few lines:
(§1)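 Testing followed the CLSI M7-A7 dilution standard in microtiter trays, with serum conditions using Mueller-Hinton Broth plus 50% pooled inactivated human serum. Values are the lowest concentrations with no macroscopically visible growth.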
For orientation: Dilution methods test growth across graded concentrations, often in twofold steps.

Experiment [2] has as its system Staph aureus 1146. Description: MIC in Mueller-Hinton Broth with 50% pooled inactivated human serum, Assay 1, Table 12. Conditions: for MIC: Staphylococcus aureus, 1146, Staph aureus 1146, Assay 1, 50% human serum, read-out: MIC, column C; for MIC, column C: Staph aureus 1146, Assay 1, 50% human serum. In a few lines:
as §1

The next experiment has as its system Staph aureus 2812. Description: MIC, microtiter broth dilution (CLSI M7-A7), Assay 1, Table 12 column E, no serum. The settings on record: for MIC: Staphylococcus aureus, 2812, Staph aureus 2812, Assay 1, no serum; for MIC, column E: Staph aureus 2812, Assay 1, no serum. In a few lines:
as §1

The test system of another experiment is Staph aureus 2811. Description: MIC, microtiter broth dilution (CLSI M7-A7), Assay 1, Table 12 column D, no serum. Conditions: for MIC: Staphylococcus aureus, 2811, Staph aureus 2811, Assay 1, no serum; for MIC, column D: Staph aureus 2811, Assay 1, no serum. In a few lines: as §1
The next experiment relates to Staph aureus 1095 MRSA. Briefly: MIC, microtiter broth dilution (CLSI M7-A7), Assay 1, Table 12 column A, no serum. Conditions: Assay 1, no serum; for MIC: Staphylococcus aureus, MRSA. In a few lines: as §1

For `COc1ccc2nccc([C@@H](O)CNC3CCN([C@H]4C[C@H](c5ccccc5)C4)CC3C(=O)O)c2c1` (stereo partly drawn) [Example 122, 4-{[(2R)-2-hydroxy-2-(6-methoxyquinolin-4-yl)ethyl]amino}-1-(trans-3-phenylcyclobutyl)piperidine-3-carboxylic acid], the MIC against Staph aureus 1146 [1] came out at 4 µg/mL (≈ 8.41 µM); in the experiment with Staph aureus 1146 [2], 16 µg/mL (≈ 33.6 µM); in the experiment with Staph aureus 2812, 2 µg/mL (≈ 4.21 µM); in the experiment on Staph aureus 2811 it was 1 µg/mL (≈ 2.1 µM); in the experiment on Staph aureus 1095 MRSA it was 4 µg/mL (≈ 8.41 µM).
For `COc1ccc2nccc([C@@H](O)CNC3CCN([C@H]4C[C@@H](c5ccccc5)C4)CC3C(=O)O)c2c1` (stereo partly drawn) [Example 123, 4-{[(2R)-2-hydroxy-2-(6-methoxyquinolin-4-yl)ethyl]amino}-1-(cis-3-phenylcyclobutyl)piperidine-3-carboxylic acid], the MIC with Staph aureus 1146 [1] is 16 µg/mL (≈ 33.6 µM); in the experiment with Staph aureus 1146 [2], 32 µg/mL (≈ 67.3 µM); in the experiment on Staph aureus 2812, 32 µg/mL (≈ 67.3 µM); with Staph aureus 2811 it was 16 µg/mL (≈ 33.6 µM); in the experiment on Staph aureus 1095 MRSA it was 32 µg/mL (≈ 67.3 µM).
For the compound `COc1ccc2ncc(Cl)c(CCCC3(C(=O)O)CCN(C4CN(c5ccccn5)C4)CC3)c2c1` [Example 126, 4-(3-(3-chloro-6-methoxyquinolin-4-yl)propyl)-1-(1-(pyridin-2-yl)azetidin-3-yl)piperidine-4-carboxylic add], the “MIC, column B” value in the experiment with Staph aureus 1146 [1] was 8 µg/mL (≈ 16.2 µM). Further, the “MIC, column C” value against Staph aureus 1146 [2] is more than 64 µg/mL. Besides, in the experiment with Staph aureus 2812, the “MIC, column E” value came out at 4 µg/mL (≈ 8.08 µM). Moreover, in the experiment with Staph aureus 2811, the “MIC, column D” value came to 2 µg/mL (≈ 4.04 µM). In the experiment on Staph aureus 1095 MRSA, the “MIC, column A” value was more than 64 µg/mL.
`COc1ccc2nccc(C(O)CC[C@@H]3CCN(C4CN(Cc5ccccn5)C4)C[C@@H]3C(=O)O)c2c1` (stereo partly drawn) [Example 127, (3R,4R)-4-(3-hydroxy-3-(6-methoxyquinolin-4-yl)propyl)-1-(1-(pyridine-2-ylmethyl)azetidin-3-yl)piperdine-3-carboxylic acid]: the “MIC, column B” value in the experiment on Staph aureus 1146 [1] is more than 64 µg/mL. The “MIC, column C” value with Staph aureus 1146 [2] is more than 64 µg/mL. The “MIC, column E” value in the experiment with Staph aureus 2812 was more than 64 µg/mL. Moreover, the “MIC, column D” value in the experiment on Staph aureus 2811 is more than 64 µg/mL. Also, in the experiment with Staph aureus 1095 MRSA, the “MIC, column A” value was more than 64 µg/mL.
For the compound `COc1ccc2nccc(C(O)CC[C@@H]3CCN(C4CN(C5CCOCC5)C4)C[C@@H]3C(=O)O)c2c1` (stereo partly drawn) [Example 128, (3R,4R)-4-[3-hydroxy-3-(6-methoxyquinolin-4-yl)propyl]-1-[1-(tetrahydro-2H-pyran-4-yl)azetidin-3-yl] piperidine-3-carboxylic acid], the MIC against Staph aureus 1146 [1], with Staph aureus 1146 [2], against Staph aureus 2812, with Staph aureus 2811 and with Staph aureus 1095 MRSA was more than 64 µg/mL throughout.
As for `COc1ccc2nccc(C(O)CC[C@@H]3CCN(C4CN(C5CCOC5)C4)C[C@@H]3C(=O)O)c2c1` (stereo partly drawn) [Example 129, (3R,4R)-4-[3-hydroxy-3-(6-methoxyquinolin-4-yl)propyl]-1-[1-(tetrahydrofuran-3-yl)azetidin-3-yl] piperidine-3-carboxylic acid], the MIC against Staph aureus 1146 [1], in the experiment on Staph aureus 1146 [2], in the experiment on Staph aureus 2812, in the experiment on Staph aureus 2811 and with Staph aureus 1095 MRSA was more than 64 µg/mL throughout.
Regarding `COc1ccc2nccc(C(O)CC[C@@H]3CCN(C4CN(C5CCCCC5)C4)C[C@@H]3C(=O)O)c2c1` (stereo partly drawn) [Example 131, (3R,4R)-1-(1-cyclohexylazetidin-3-yl)-4-[3-hydroxy-3-(6-methoxyquinolin-4-yl)propyl]piperidine-3-carboxylic acid], the MIC against Staph aureus 1146 [1], in the experiment with Staph aureus 1146 [2], against Staph aureus 2812, against Staph aureus 2811 and against Staph aureus 1095 MRSA was more than 64 µg/mL each time.
For the compound `COc1ccc2nccc(C(O)CC[C@@H]3CCN(C4CN(C5CCCC5)C4)C[C@@H]3C(=O)O)c2c1` (stereo partly drawn) [Example 132, (3R,4R)-1-(1-cyclopentylazetidin-3-yl)-4-[3-hydroxy-3-(6-methoxyquinolin-4-yl)propyl]piperidine-3-carboxylic acid], the MIC with Staph aureus 1146 [1], in the experiment on Staph aureus 1146 [2], with Staph aureus 2812, in the experiment on Staph aureus 2811 and against Staph aureus 1095 MRSA was more than 64 µg/mL in each case.
Consider `COc1ccc2nccc(C(F)CC[C@@H]3CCN(C4CC(c5ccccc5)C4)C[C@@H]3C(=O)O)c2c1` (stereo partly drawn) [Example 133, (3R,4R)-4-(3-fluoro-3-(6-methoxyquinolin-4-yl)propyl)-1-(3-phenylcyclobutyl)piperidine-3-carboxylic acid], for which the MIC with Staph aureus 1146 [1] is not above 0.0625 µg/mL; in the experiment on Staph aureus 1146 [2], 2 µg/mL (≈ 4.2 µM); against Staph aureus 2812, not above 0.0625 µg/mL; with Staph aureus 2811 it was 0.125 µg/mL (≈ 0.262 µM). The “MIC, column A” value against Staph aureus 1095 MRSA came out at 0.25 µg/mL (≈ 0.525 µM).
With `COc1ccc2nccc(C(F)CC[C@@H]3CCN(C4CC(c5ccccc5)C4)C[C@@H]3C(=O)O)c2c1` (stereo partly drawn) [Example 134, (3R,4R)-4-(3-fluoro-3-(6-methoxyquinolin-4-yl)propyl)-1-(3-phenylcyclobutyl)piperidine-3-carboxylic acid], in the experiment on Staph aureus 1146 [1], the “MIC, column B” value is “<=.0625 μg/ml”. The “MIC, column C” value in the experiment on Staph aureus 1146 [2] is 4 µg/mL (≈ 8.39 µM). Further, in the experiment on Staph aureus 2812, the “MIC, column E” value is given as “<=.0625 μg/ml”. The “MIC, column D” value in the experiment with Staph aureus 2811 is given as “<=.0625 μg/ml”. Moreover, in the experiment with Staph aureus 1095 MRSA, the “MIC, column A” value is given as “<=.0625 μg/ml”.
On to `COc1ccc2nccc(C(=O)CC[C@@H]3CCN(C4CC(c5ccccc5)C4)C[C@@H]3C(=O)O)c2c1` (stereo partly drawn) [Example 135, (3R,4R)-4-[3-(6-Methoxy-quinolin-4-yl)-3-oxo-propyl]-1-(3-phenyl-cyclobutyl)-piperidine-3-carboxylic acid], for which the MIC was 0.25 µg/mL (≈ 0.529 µM) against Staph aureus 1146 [1]; 8 µg/mL (≈ 16.9 µM) in the experiment with Staph aureus 1146 [2]; 0.25 µg/mL (≈ 0.529 µM) in the experiment with Staph aureus 2812; 0.125 µg/mL (≈ 0.265 µM) in the experiment with Staph aureus 2811; 0.25 µg/mL (≈ 0.529 µM) with Staph aureus 1095 MRSA.
Regarding `CNC(CC[C@@H]1CCN(C2CC(c3ccccc3)C2)C[C@@H]1C(=O)O)c1ccnc2ccc(OC)cc12` (stereo partly drawn) [Example 136, (3R,4R)-4-[3-(6-Methoxy-quinolin-4-yl)-3-methylamino-propyl]-1-(3-phenyl-cyclobutyl)-piperidine-3-carboxylic acid], the MIC against Staph aureus 1146 [1] was 4 µg/mL (≈ 8.2 µM); in the experiment with Staph aureus 1146 [2], 4 µg/mL (≈ 8.2 µM); with Staph aureus 2812, 8 µg/mL (≈ 16.4 µM); with Staph aureus 2811, 4 µg/mL (≈ 8.2 µM); in the experiment with Staph aureus 1095 MRSA, 8 µg/mL (≈ 16.4 µM).
Turning to `COc1ccc2nccc(C(CC[C@@H]3CCN(C4CC(c5ccccc5)C4)C[C@@H]3C(=O)O)N3CCC3)c2c1` (stereo partly drawn) [Example 137, (3R,4R)-4-[3-Azetidin-1-yl-3-(6-methoxy-quinolin-4-yl)-propyl]-1-(3-phenylcyclobutyl)piperidine-3-carboxylic acid], the MIC against Staph aureus 1146 [1] is 64 µg/mL (≈ 125 µM); with Staph aureus 1146 [2], more than 64 µg/mL; against Staph aureus 2812 it was 64 µg/mL (≈ 125 µM); against Staph aureus 2811 it was 64 µg/mL (≈ 125 µM); in the experiment on Staph aureus 1095 MRSA it was more than 64 µg/mL.
Regarding `COc1ccc2nccc(C(N)CC[C@@H]3CCN(C4CC(c5ccccc5)C4)C[C@@H]3C(=O)O)c2c1` (stereo partly drawn) [Example 138, (3R,4R)-4-[3-Amino-3-(6-methoxy-quinolin-4-yl)-propyl]-1-(3-phenyl-cyclobutyl)-piperidine-3-carboxylic acid], the MIC stood at 1 µg/mL (≈ 2.11 µM) in the experiment with Staph aureus 1146 [1]; 0.5 µg/mL (≈ 1.06 µM) in the experiment on Staph aureus 1146 [2]; 2 µg/mL (≈ 4.22 µM) with Staph aureus 2812; 0.5 µg/mL (≈ 1.06 µM) in the experiment on Staph aureus 2811; 2 µg/mL (≈ 4.22 µM) with Staph aureus 1095 MRSA.
Turning to `COc1ccc2nccc(C(CC[C@@H]3CCN(C4CC(c5ccccc5)C4)C[C@@H]3C(=O)O)N3CCOCC3)c2c1` (stereo partly drawn) [Example 139], in the experiment with Staph aureus 1146 [1], the “MIC, column B” value came to 2 µg/mL (≈ 3.68 µM). In the experiment with Staph aureus 1146 [2], the “MIC, column C” value was 16 µg/mL (≈ 29.4 µM). Further, in the experiment with Staph aureus 2812, the “MIC, column E” value turned out to be 2 µg/mL (≈ 3.68 µM). Also, the “MIC, column D” value with Staph aureus 2811 was found to be 4 µg/mL (≈ 7.36 µM). The “MIC, column A” value in the experiment on Staph aureus 1095 MRSA is 2 µg/mL (≈ 3.68 µM).

Broadly, the MIC is the least concentration at which growth counts as inhibited.
